Our source for the IC50 values is patent US9656990B2, “Cathepsin cysteine protease inhibitors” (Merck Sharp & Dohme Corp., priority 2014, dated 2017).

For assay [1], the target named is human cathepsin K (UniProt P43236, Y175D/V274L, species not given). Briefly: Cathepsin K Assay. The note with it: IP from dose response curve; Z-Leu-Arg-AMC substrate, pH 5.5; read-out: hrbCat K (IP (nM)). In kind it is biochemical.
In assay [2] the target is T1, human cathepsin F (Homo sapiens, UniProt Q9UBX1).
T1 sequence (Q9UBX1 271-484): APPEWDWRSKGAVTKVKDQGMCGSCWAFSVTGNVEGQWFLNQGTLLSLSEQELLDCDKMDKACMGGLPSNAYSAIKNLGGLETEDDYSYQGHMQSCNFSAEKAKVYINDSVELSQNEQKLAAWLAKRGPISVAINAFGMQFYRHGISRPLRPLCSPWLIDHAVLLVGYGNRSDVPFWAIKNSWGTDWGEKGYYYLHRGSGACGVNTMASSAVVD
The assay can be described thus: Cathepsin F Assay. In kind it is biochemical. The note with it: IP from dose response curve; Z-Phe-Arg-AMC substrate, pH 5.5; read-out: hCat F (IP (nM)). As for the experimental part:
Serial dilutions (1/3) from 500 μM down to 0.025 μM of test compounds were prepared in dimethyl sulfoxide (DMSO). Then 0.5 μL of DMSO from each dilution were added to 18.75 μL of assay buffer (MES, 50 mM (pH 5.5); EDTA, 2.5 mM; DTT, 2.5 mM and 10% DMSO) containing human cathepsin F (10 nM) in assay buffer solution. The assay solutions were mixed for 5-10 seconds on a shaker plate and incubated for 15 minutes at room temperature. Z-Phe-Arg-AMC (8 μM) in 6.25 μL of assay buffer was added to the assay solutions. Hydrolysis of the coumarin leaving group (AMC) was followed by spectrofluorometry (Exλ=360 nm; Emλ=460 nm) for 20 minutes. Percent of inhibition were calculated by fitting experimental values to standard mathematical model for dose response curve.

Take `CS(=O)(=O)c1ccc(-c2cn(-c3ccccc3)nc2C2CCC(F)(F)CC2C(=O)NCC#N)cc1` (racemic) [Example 76, (1R,2R and 1S,2S)-N-(cyanomethyl)-5,5-difluoro-2-(4-(4-(methylsulfonyl)phenyl)-1-phenyl-1H-pyrazol-3-yl)cyclohexanecarboxamide]: the IC50 in assay [1] was found to be 0.8 nM; in assay [2] it was 11 nM.
Regarding `CS(=O)(=O)c1ccc(-c2cn(-c3ccc(F)cc3)nc2C2CCC(F)(F)CC2C(=O)NCC#N)cc1` (racemic) [Example 77, (1R,2R and 1S,2S)-N-(cyanomethyl)-5,5-difluoro-2-(1-(4-fluorophenyl)-4-(4-(methylsulfonyl)phenyl)-1H-pyrazol-3-yl)cyclohexanecarboxamide], the IC50 in assay [1] turned out to be 1.24 nM; in assay [2], 9 nM.
The like results for `CS(=O)(=O)c1ccc(-c2cn(-c3ccc4ccccc4c3)nc2C2CCC(F)(F)CC2C(=O)NCC#N)cc1` (racemic) [Example 78, (1R,2R and 1S,2S)-N-(cyanomethyl)-5,5-difluoro-2-(4-(4-(methylsulfonyl)phenyl)-1-(naphthalen-2-yl)-1H-pyrazol-3-yl)cyclohexanecarboxamide] were, in that order, 2.12 nM and 4 nM.
The like results for `N#CCNC(=O)C1CC(F)(F)CCC1c1nn(-c2ccc(F)cc2)cc1-c1ccc(N2CCS(=O)(=O)CC2)cc1` (racemic) [Example 79, (1R,2R and 1S,2S)-N-(cyanomethyl)-2-(4-(4-(1,1-dioxidothiomorpholino)phen-yl)-1-(4-fluorophenyl)-1H-pyrazol-3-yl)-5,5-difluorocyclohexanecarbox-amide] were, in that order, 0.81 nM and 17 nM.
For `N#CC1(NC(=O)C2CC(F)(F)CCC2c2nn(-c3ccc(F)cc3)cc2-c2ccc(N3CCS(=O)(=O)CC3)cc2)CC1` (racemic) [Example 80, (1R,2R and 1S,2S)-N-(1-cyanocyclopropyl)-2-(4-(4-(1,1-dioxidothiomorpholino)phen-yl)-1-(4-fluorophenyl)-1H-pyrazol-3-yl)-5,5-difluorocyclohexanecarbox-amide], the IC50 stood at 1 nM in assay [1] and 35 nM in assay [2].
The like results for `N#CC1(NC(=O)[C@@H]2CCCC[C@H]2c2nn(-c3ccc(C(O)C(F)(F)F)cc3)cc2-c2ccc(N3CCS(=O)(=O)CC3)cc2)CC1` (mixture of isomers) [Example 113, (1R,2R)-N-(1-cyanocyclopropyl)-2-(4-(4-(1,1-dioxidothiomorpholino)phen-yl)-1-(4-((S and R)-2,2,2-trifluoro-1-hydroxyethyl)phenyl)-1H-pyrazol-3-yl)cyclohexanecarboxamide] were, in that order, 0.88 nM and 360 nM.
For `N#CC1(NC(=O)[C@@H]2CC3CC3C[C@H]2c2nn(-c3ccc(F)cc3)cc2-c2ccc(N3CCS(=O)(=O)CC3)cc2)CC1` (single isomer, unassigned) [Example 3, (1S or 1R,3R,4R,6R or 6S)—N-(1-Cyanocyclopropyl)-4-(4-(4-(1,1-dioxidothiomorpholino)phenyl)-1-(4-fluorophenyl)-1H-pyrazol-3-yl)bicyclo[4.1.0]heptane-3-carboxamide], the values for the IC50 in assay [1] and in assay [2] were 0.84 nM and 333 nM, respectively.
The like results for `N#CC1(NC(=O)[C@@H]2CC3CC3C[C@H]2c2nn(-c3ccc(F)cc3)cc2-c2ccc(N3CCS(=O)(=O)CC3)cc2)CC1` (single isomer, unassigned) [Example 4, (1R or 1S,3R,4R,6S or 6R)—N-(1-Cyanocyclopropyl)-4-(4-(4-(1,1-dioxidothiomorpholino)phenyl)-1-(4-fluorophenyl)-1H-pyrazol-3-yl)bicyclo[4.1.0]heptane-3-carboxamide] were, in that order, 0.93 nM and 258 nM.
Take `CC(C#N)NC(=O)[C@@H]1CCC(F)(F)C[C@H]1c1nn(-c2ccc(F)cn2)cc1-c1ccc(N2CCS(=N)(=O)CC2)cc1` (single isomer, unassigned) [Example 23, (1R,2R)-N-((S or R)-1-cyanoethyl)-4,4-difluoro-2-(1-(5-fluoropyridin-2-yl)-4-(4-(1-imino-1-oxidothiomorpholino)phenyl)-1H-pyrazol-3-yl)cyclohexanecarboxamide]: the IC50 in assay [1] worked out at 1.07 nM; in assay [2], 348 nM.
The like results for `CN=S1(=O)CCN(c2ccc(-c3cn(-c4ccc(F)cn4)nc3[C@@H]3CC(F)(F)CC[C@H]3C(=O)NC(C)C#N)cc2)CC1` (single isomer, unassigned) [Example 25, (1R,2R)-N-((S or R)-1-cyanoethyl)-4,4-difluoro-2-(1-(5-fluoropyridin-2-yl)-4-(4-(1-(methylimino)-1-oxidothiomorpholino)phenyl)-1H-pyrazol-3-yl)cyclohexanecarboxamide] were, in that order, 0.52 nM and 431 nM.
The matching figures for `N#CC(CC(F)(F)F)NC(=O)[C@@H]1CC(F)(F)CC[C@H]1c1nn2ccccc2c1-c1ccc(N2CCS(=O)(=O)CC2)cc1` (single isomer, unassigned) [Example 74, (1R,2R)-N-((S or R)-1-cyano-3,3,3-trifluoropropyl)-2-(3-(4-(1,1-dioxidothiomorpholino)phen-yl)pyrazolo[1,5-a]pyridin-2-yl)-5,5-difluorocyclohexanecarbox-amide]: 7.69 nM and 252 nM.
`N#CC(CC(F)(F)F)NC(=O)[C@@H]1CC(F)(F)CC[C@H]1c1nn2ccccc2c1-c1ccc(N2CCS(=O)(=O)CC2)cc1` (single isomer, unassigned) [Example 75, (1R,2R)-N-((R or S)-1-cyano-3,3,3-trifluoropropyl)-2-(3-(4-(1,1-dioxidothiomorpholino)phen-yl)pyrazolo[1,5-a]pyridin-2-yl)-5,5-difluorocyclohexanecarbox-amide]: the IC50 in assay [1] is 0.99 nM; in assay [2], 21 nM.
The like results for `CC1(C)CCC(C(=O)NC2(C#N)CC2)C(c2nn(-c3ccc(F)cc3)cc2-c2ccc(N3CCS(=O)(=O)CC3)cc2)C1` (single isomer, unassigned) [Example 116, (1R,2R or 1S,2S)-N-(1-cyanocyclopropyl)-2-(4-(4-(1,1-dioxidothiomorpholino)phen-yl)-1-(4-fluorophenyl)-1H-pyrazol-3-yl)-4,4-dimethylcyclohexanecarbox-amide] were, in that order, 328 nM and 1200 nM.
The like results for `CC1(C)CC[C@@H](c2nn(-c3ccc(F)cc3)cc2-c2ccc(N3CCS(=O)(=O)CC3)cc2)[C@H](C(=O)NC2(C#N)CC2)C1` (single isomer, unassigned) [Example 127, (1S,2S) or (1R,2R)-N-(1-cyanocyclopropyl)-2-(4-(4-(1,1-dioxidothiomorpholino)phen-yl)-1-(4-fluorophenyl)-1H-pyrazol-3-yl)-5,5-dimethylcyclohexanecarbox-amide] were, in that order, 1.5 nM and 632 nM.
The matching figures for `N#CC1(NC(=O)[C@@H]2CC3CC3C[C@H]2c2nn(-c3ccc(F)cn3)cc2-c2ccc(N3CCS(=O)(=O)CC3)cc2)CC1` (single isomer, unassigned) [Example 152, (1S,3R,4R,6R) or (1R,3R,4R,6S)-N-(1-cyanocyclopropyl)-4-(4-(4-(1,1-dioxidothiomorpholino)phen-yl)-1-(5-fluoropyridin-2-yl)-1H-pyrazol-3-yl)bicyclo[4.1.0]heptane-3-carboxamide]: 1.06 nM and 338 nM.
